# Assay results taken from patent US20050060764A1, “Mouse model for bone metabolism” (priority 2003, published 2005).
# Strand notation (5' to 3'): a small letter for the sugar, then the base; units joined by * are phosphorothioate-linked, units joined directly phosphodiester-linked; [ ] holds rarer units or linkages, { } end groups; capitals alone tell only the bases. e = 2'-O-(2-methoxyethyl) (MOE); [5mC] = 5-methylcytosine; d = 2'-deoxy (DNA)
# Test system: mouse RANKL mRNA
# Experiment: Antisense inhibition of mouse RANKL mRNA levels in C2C12 cells, quantitative real-time PCR (Table 2)
# Assay type: cell-based
# Design: concentration or dose not given beside the values
# Details: averages from three experiments
# Method: Cells were seeded into 24-well plates (Falcon-353047 at a density of ˜10,000 cells/cm^2 for use in antisense oligonucleotide transfection.
# Cells are treated and data are obtained in triplicate. […] Cells were harvested 16-24 hours after oligonucleotide treatment.
# PCR reagents were obtained from Invitrogen Corporation, (Carlsbad, Calif.).
# Probes and primers to mouse RANKL were designed to hybridize to a mouse RANKL sequence, using published sequence information (GenBank accession number AF013170.1, incorporated herein as SEQ ID NO:ll). For mouse RANKL the PCR primers were: • forward primer: […] (SEQ ID NO:12) • reverse primer: […] (SEQ ID NO: 13) and • the PCR probe was: FAM-[…]-TAMRA (SEQ ID NO: 14) where FAM is the fluorescent reporter dye and TAMRA is the quencher dye. For mouse GAPDH the PCR primers were: • forward primer: […](SEQ ID NO:15) • reverse primer: […](SEQ ID NO:16) and the • PCR probe was: 5′ JOE-[…]-TAMRA 3′ (SEQ ID NO: 17) where JOE is the fluorescent reporter dye and TAMRA is the quencher dye.
# In accordance with the present invention, a second series of antisense compounds was designed to target different regions of the mouse RANKL RNA, using published sequences (GenBank accession number AF013170.1, incorporated herein as SEQ ID NO: 11). […] All cytidine residues are 5-methylcytidines. […] If present “N.D.” indicates “no data”.
row,Substance,% INHIB (inhibition of mouse RANKL mRNA levels)
1,180821 (antisense e[5mC]*eA*eT*eT*eA*d[5mC]*dA*d[5mC]*d[5mC]*dT*dG*dA*dA*dA*dT*eA*eT*eA*eA*e[5mC]) [compound 180821],15%
2,180788 (antisense eG*eT*eT*e[5mC]*eA*d[5mC]*dA*dA*dA*dG*dG*dT*d[5mC]*d[5mC]*dT*eG*eG*e[5mC]*eA*eG) [compound 180788],62%
3,180816 (antisense eA*e[5mC]*e[5mC]*eG*eT*dT*dG*dT*dG*dT*dA*dA*dT*d[5mC]*dA*e[5mC]*e[5mC]*eA*eT*eG) [compound 180816],35%
4,"tccggatccagcagggaagg (antisense eT*e[5mC]*e[5mC]*eG*eG*dA*dT*d[5mC]*d[5mC]*dA*dG*d[5mC]*dA*dG*dG*eG*eA*eA*eG*eG) [ISIS 180812, 2′-MOE gapmer targeted to mouse RANKL]",at least 40%
5,180792 (antisense eT*eG*e[5mC]*eT*e[5mC]*d[5mC]*dG*d[5mC]*dG*dA*dT*d[5mC]*dG*dT*dT*e[5mC]*eT*e[5mC]*eT*e[5mC]) [compound 180792],77%
6,180798 (antisense e[5mC]*e[5mC]*eT*eT*e[5mC]*dG*dT*dG*dT*dG*dG*dG*dA*d[5mC]*dG*e[5mC]*e[5mC]*eG*eG*eG) [compound 180798],34%
7,180831 (antisense e[5mC]*e[5mC]*eT*eG*eA*d[5mC]*dA*dG*dA*dT*dT*dT*d[5mC]*dA*dG*eT*eA*eG*e[5mC]*e[5mC]) [compound 180831],54%
8,"atgctaatttcttcaccagc (antisense eA*eT*eG*e[5mC]*eT*dA*dA*dT*dT*dT*d[5mC]*dT*dT*d[5mC]*dA*e[5mC]*e[5mC]*eA*eG*e[5mC]) [ISIS 180811, 2′-MOE gapmer targeted to mouse RANKL]",at least 40%
9,"agcagactccgccacggccc (antisense eA*eG*e[5mC]*eA*eG*dA*d[5mC]*dT*d[5mC]*d[5mC]*dG*d[5mC]*d[5mC]*dA*d[5mC]*eG*eG*e[5mC]*e[5mC]*e[5mC]) [ISIS 180790, 2′-MOE gapmer targeted to mouse RANKL]",at least 40%
10,180825 (antisense eG*eT*eA*e[5mC]*eA*dT*dT*dT*dA*dA*dA*dA*d[5mC]*dA*dT*eT*eA*eA*eA*eT) [compound 180825],25%
11,"tctcggctggcccggcgcat (antisense eT*e[5mC]*eT*e[5mC]*eG*dG*d[5mC]*dT*dG*dG*d[5mC]*d[5mC]*d[5mC]*dG*dG*e[5mC]*eG*e[5mC]*eA*eT) [ISIS 180797, 2′-MOE gapmer targeted to mouse RANKL]",at least 40%
12,"gttcacaaaggtcctggcag (antisense eG*eT*eT*e[5mC]*eA*d[5mC]*dA*dA*dA*dG*dG*dT*d[5mC]*d[5mC]*dT*eG*eG*e[5mC]*eA*eG) [ISIS 180788, 2′-MOE gapmer targeted to mouse RANKL]",at least 40%
13,180789 (antisense eG*e[5mC]*eA*eG*eA*d[5mC]*dT*d[5mC]*d[5mC]*dG*d[5mC]*d[5mC]*dA*d[5mC]*dG*eG*e[5mC]*e[5mC]*e[5mC]*e[5mC]) [compound 180789],34%
14,180826 (antisense eT*eA*e[5mC]*eA*eA*dA*dG*dT*dG*d[5mC]*dA*d[5mC]*d[5mC]*dA*dG*eT*eT*eA*eA*eA) [compound 180826],33%
15,180822 (antisense eA*eA*eT*e[5mC]*eA*dA*dA*dT*dA*d[5mC]*dT*dA*dT*dA*dG*e[5mC]*eA*e[5mC]*eA*eA) [compound 180822],24%
16,"cagttccttctgcacggccc (antisense e[5mC]*eA*eG*eT*eT*d[5mC]*d[5mC]*dT*dT*d[5mC]*dT*dG*d[5mC]*dA*d[5mC]*eG*eG*e[5mC]*e[5mC]*e[5mC]) [ISIS 180804, 2′-MOE gapmer targeted to mouse RANKL]",at least 40%
